The values below come from ChEMBL document CHEMBL1201862, “PubChem BioAssay data set” (2004).

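How tested: cells in 96-well plates exposed to compound for 48 hours at five concentrations. GI50 marks 50% less growth.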 Calls of active or inactive are those of the source. No stated cut-off is given here; in the data, active = GI50 up to about 1.1 µM and inactive = higher.

Among the test systems are A498; CCRF-CEM; HCC 2998; HCT-15; HL-60; K562; NCI-H23; NCI-H460; NCI-H522; OVCAR-4; OVCAR-8; RPMI-8226; SF-539; SK-MEL-28; SK-MEL-5; SNB-19; UACC-257; UO-31; NCI-H226; RXF 393.
Common to all, as to assay: inhibition of tumour cell growth, NCI panel, 48 h

On to `Cn1c(=O)c2nc(N3CCOCC3)cnc2n(C)c1=O`, for which the GI50 with A498 was > 100 µM (inactive); with CCRF-CEM, > 100 µM (inactive); in the test with HCC 2998, > 100 µM (inactive); in the test with HCT-15, over 100 µM; with HL-60 it was > 100 µM (inactive); in the test with K562 it was > 100 µM (inactive). Also, the GI50 in the test on NCI-H23, in the test on NCI-H460, with NCI-H522, in the test with OVCAR-4, in the test on OVCAR-8 and with RPMI-8226 was > 100 µM (inactive) in each case. The GI50 with SF-539, in the test on SK-MEL-28, in the test with SK-MEL-5, in the test with SNB-19, with UACC-257 and in the test on UO-31 was > 100 µM (inactive) throughout.
With `Cn1ccnc1C(O)(c1nccn1C)c1nccn1C`, the GI50 in the test on HCC 2998, in the test with HL-60, with NCI-H226, with NCI-H23, in the test on NCI-H460 and in the test with NCI-H522 was > 100 µM (inactive) each time. Further, the GI50 with OVCAR-4, in the test with OVCAR-8, with RXF 393, with SK-MEL-28, in the test on SK-MEL-5 and in the test on SNB-19 was > 100 µM (inactive) each time. Also, the GI50 in the test on UACC-257 and in the test on UO-31 was > 100 µM (inactive) each time.
Turning to `COC(=O)C1CCC(=O)N1C(=O)Cc1ccc(OC)cc1` (stereo unspecified), the GI50 is > 100 µM (inactive) in the test on A498; over 100 µM with HCT-15; > 100 µM (inactive) in the test with NCI-H226; > 100 µM (inactive) in the test with NCI-H23; > 100 µM (inactive) with NCI-H460; > 100 µM (inactive) in the test on NCI-H522. Moreover, the GI50 with OVCAR-4, in the test with OVCAR-8, in the test with SK-MEL-28, with SK-MEL-5, in the test with SNB-19 and in the test on UACC-257 was > 100 µM (inactive) throughout. Moreover, in the test on UO-31, the GI50 is > 100 µM (inactive).
`CC1OC2=N[C@@H]1C(=O)N[C@@H](Cc1ccccc1)C1=N[C@H](C(=O)N[C@@H](Cc3ccccc3)C3=N[C@H](C(=O)N[C@H]2Cc2ccccc2)C(C)O3)C(C)O1` (stereo partly specified): the GI50 with A498 was 29.9 µM (inactive); with HCC 2998, 34.5 µM (inactive); with HCT-15 it was 30.6 µM; in the test with K562 it was 26.7 µM (inactive); in the test with NCI-H226, 29.6 µM (inactive); with NCI-H23, 37.2 µM (inactive). Further, the GI50 in the test on OVCAR-4 was 46.2 µM (inactive); in the test on OVCAR-8, 26.4 µM (inactive); in the test with RPMI-8226, 13.5 µM (inactive); in the test on RXF 393, 31.1 µM (inactive); in the test with SF-539, 24.2 µM (inactive); with SK-MEL-28, 26.5 µM (inactive). For the same molecule, the GI50 is 24.3 µM (inactive) in the test on SK-MEL-5, 30.4 µM (inactive) in the test on UACC-257 and 31.8 µM (inactive) with UO-31.
As for `COc1ccc(C2C(Cl)C(=O)N2NC(=O)c2ccccc2O)cc1` (stereo unspecified), the GI50 in the test with CCRF-CEM, in the test with HL-60, in the test with K562, in the test with NCI-H23, with NCI-H460 and in the test on NCI-H522 was > 100 µM (inactive) each time. In addition, the GI50 with OVCAR-4, with OVCAR-8, in the test on RPMI-8226, in the test on RXF 393, with SF-539 and in the test with SK-MEL-28 was > 100 µM (inactive) each time. In addition, the GI50 with SK-MEL-5, in the test on SNB-19, with UACC-257 and with UO-31 was > 100 µM (inactive) in each case.
